Measurements published in patent publication EP4603497A1, “CRYSTAL FORM OF CYANO-SUBSTITUTED POLYPEPTIDE COMPOUND AND PREPARATION METHOD THEREFOR” (Fujian Akeylink Biotechnology Co., Ltd., priority 2022, dated 2024).

Tests used:
[1] = cytotoxicity experiment (same conditions, without virus infection); assay type: cell-based; conditions: human; MRC5 cells, 5 days, no virus
Protocol: (§1) Cells were seeded at a certain density (Table 12) into a 96-well plate and incubated overnight in a 5% CO2, 37°C incubator. The next day, the diluted compound (8 concentration points, double replicate wells) was added thereto, 50 µL per well. Then the diluted virus was added to each well at 100 TCID50, 50 µL per well. Cell controls (cells, no compound treatment or virus infection), virus controls (cells infected with virus, no compound treatment), and culture medium controls (only culture medium) were set up. The final volume of the experimental culture medium was 200 µL, with a final DMSO concentration of 0.5% in the culture medium. The cells were incubated for 5 days in a 5% CO2, 33°C incubator. Cell viability was detected using the CellTiter Glo (Promega) cell viability assay kit. The conditions for the cytotoxicity experiment were the same as for the antiviral experiment, but without virus infection.
The antiviral activity and cytotoxicity of the compound were represented by the inhibition rate (%) and the cell viability (%) of the cytopathic effect caused by the virus at different concentrations of the compound, respectively. […]
(§2) The inhibition rate and cell viability of the compound were analyzed using GraphPad Prism for non-linear fitting, and the half-maximal effective concentration (EC50) and half-maximal cytotoxic concentration (CC50) values of the compound were calculated. […]

coronavirus OC43 strain = assay: in vivo antiviral efficacy, suckling mouse infection model; conditions: once a day for 7 consecutive days, first dose 2 hours before inoculation
Excerpt: Experimental example 4: Evaluation of the in vivo antiviral efficacy of the test compound using a suckling mouse infection model with the coronavirus OC43 strain

SARS-CoV-2 Mpro = target: T1, SARS-CoV-2 Mpro (Severe acute respiratory syndrome coronavirus 2, UniProt P0DTD1); assay: in vitro anti-SARS-CoV-2 Mpro protease activity (fluorescent substrate assay); assay type: biochemical; conditions: 25 nM Mpro protein, 25 µM substrate
T1 construct: SARS-CoV-2 Mpro; purchased WuXi AppTec
Protocol: The compound was dissolved in DMSO, diluted in a 3-fold gradient using Echo655 according to the required test concentration, with 10 concentration points. Each concentration was duplicated and added to a 384-well plate. The Mpro protein and substrate were diluted with a test buffer (100 mM NaCl, 20 mM Tris-HCl, 1 mM EDTA), and the Mpro protein was added to the 384-well test plate, incubated with the compound at room temperature for 30 min, then the substrate was added. The test concentration of the Mpro protein was 25 nM and the test concentration of the substrate was 25 µM. The mixture was incubated in a constant temperature incubator at 30°C for 60 minutes. Then, the fluorescence signal value at Ex/Em = 340 nm/490 nm was detected using a microplate reader. At the same time, the background well containing substrate and compound but not containing Mpro protein was detected as a control. […]

coronavirus HCoV OC43 = assay: in vitro anti-coronavirus activity, cytopathic model (CPE, CellTiter Glo); assay type: cell-based; conditions: Betacoronavirus 1, 120 h; MRC5 cells, HCoV OC43 100TCID50/well, 5 days
Protocol: MRC5 cells and coronavirus HCoV OC43 were purchased from ATCC.
MRC5 cells were cultured in MEM (Sigma) culture medium supplemented with 10% fetal bovine serum (Excell), 1% dual antibody (Hyclone), 1% L-glutamine (Gibco), and 1% non-essential amino acids (Gibco). MEM (Sigma) culture medium supplemented with 5% fetal bovine serum (Excell), 1% dual antibody (Hyclone), 1% L-glutamine (Gibco), and 1% non-essential amino acids (Gibco) was used as the experimental culture medium.
as §1, with “The final volume of the experimental culture medium was 200 µL, with a final DMSO concentration of 0.5% in the culture medium. The cells were incubated for 5 days in a 5% CO2, 33°C incubator.” left out, “The conditions for the cytotoxicity experiment were the same as for the antiviral experiment, but without virus infection.” left out
as §2

in vivo = assay: in vivo; set-up: species or system SD rats; conditions: rat; for AUC(0-t): AUC0-last; for half-life: T1/2
Protocol: In this study, male and female SD rats were selected as test animals.
Animals were grouped according to 3 per group/gender. […] The plasma drug concentration was determined using LC-MS/MS method. Table 14: Pharmacokinetic parameters in rats

[2] = stability of the crystal form under different conditions (XRPD confirmation); assay type: physicochemical
Excerpt: Table 6: Stability test under different conditions

[3] = hygroscopicity by dynamic vapor sorption (DVS); assay type: physicochemical
Protocol: • Instrument model: SMS DVS Advantage dynamic vapor sorption analyzer • Test conditions: A sample (10 to 30 mg) is taken and placed in a DVS sample tray for testing. • The detailed parameters for DVS are as follows: • Temperature: 25°C • Equilibrium: dm/dt = 0.002%/min (minimum: 10 minutes, maximum: 180 minutes) • RH (%) range: 70%RH-95%RH-0%RH-95%RH • RH (%) gradient: 10% (90%RH-0%RH-90%RH), 5% (95%RH-90%RH and 90%RH-95%RH).

Structure (SMILES): CC(C)(C)[C@H](NC(=O)C(F)(F)F)C(=O)N1[C@H]2C[C@@H]([C@H]1C(=O)N[C@H](C#N)C[C@@H]1CCNC1=O)C1(CC1)C2 [Compound 1]
- CC50 at 120 h [1]: > 10000 nM
- Median survival time (coronavirus OC43 strain; 12.5 mg/kg): > 14 days
- Survival rate (coronavirus OC43 strain; 12.5 mg/kg): 87.5%
- Median survival time (coronavirus OC43 strain; 25 mg/kg): > 14 days
- Survival rate (coronavirus OC43 strain; 25 mg/kg): 100%
- Median survival time (coronavirus OC43 strain; 50 mg/kg): > 14 days
- Survival rate (coronavirus OC43 strain; 50 mg/kg): 100%
- IC50 (SARS-CoV-2 Mpro): 1.8 nM
- EC50 (coronavirus HCoV OC43): 5.1 nM
- EC90 (coronavirus HCoV OC43): 7.9 nM

Structure (SMILES): CC(C)(C)[C@H](NC(=O)C(F)(F)F)C(=O)N1[C@H]2C[C@@H]([C@H]1C(=O)N[C@H](C#N)C[C@@H]1CCNC1=O)C1(CC1)C2 [Crystal form A]
- AUC0-last (in vivo; iv, 2 mg/kg): 0.778 µg·h/mL
- AUC(0-inf) (in vivo; iv, 2 mg/kg): 0.785 µg·h/mL
- Cl (in vivo; iv, 2 mg/kg): 2.55 L/h/kg
- T1/2 (in vivo; iv, 2 mg/kg): 18.2 min
- Vdss (in vivo; iv, 2 mg/kg): 1.04 L/kg
- AUC(0-inf) (in vivo; iv, 2 mg/kg, AUC0-inf): 0.804 µg·h/mL
- AUC(0-t) (in vivo; iv, 2 mg/kg): 0.792 µg·h/mL
- clearance (in vivo; iv, 2 mg/kg, Cl): 2.54 L/h/kg
- half-life (in vivo; iv, 2 mg/kg): 19.8 min
- Vd (in vivo; iv, 2 mg/kg, Vdss): 1.11 L/kg
- AUC0-last (in vivo; po, 30 mg/kg): 9.91 µg·h/mL
- Tmax (in vivo; po, 30 mg/kg): 30 min
- AUC(0-inf) (in vivo; po, 30 mg/kg, AUC0-inf): 5.98 µg·h/mL
- AUC(0-t) (in vivo; po, 30 mg/kg): 5.96 µg·h/mL
- half-life (in vivo; po, 30 mg/kg): 49.6 min
- Tmax (in vivo; po, 30 mg/kg, Tmax): 55 min
- Confirmation of crystal form by XRPD after completion of the experiment ([2]; High humidity condition (25°C/92.5%RH), 30 days): Crystal form A
- Confirmation of crystal form by XRPD after completion of the experiment ([2]; High temperature (60°C), 30 days): Crystal form A
- Confirmation of crystal form by XRPD after completion of the experiment ([2]; Illumination (5000 ± 500 lux (visible light) and 90 µw/cm^2 (ultraviolet)), 10 days): Crystal form A
- hygroscopic weight gain ([3]; 25°C and 80% RH): 0.114%
- hygroscopicity ([3]; 25°C and 80% RH): no or almost no hygroscopicity
- ΔW ([3]; DVS pattern, Figure 16): 0.114%
